# Results published in ChEMBL document CHEMBL3885881, “DrugMatrix”.
# Species on record: Rattus norvegicus
# Assay: DrugMatrix - Regimen: Daily Repeat
# Assay type: toxicity, organism-based, Sprague-Dawley
# Parameters: regimen Daily Repeat, gender Male, age 6-8 weeks
# Settings: in vivo, po, route oral GAVAGE, vehicle 100 % WATER; for ABSOLUTE BASOPHIL / ABSOLUTE EOSINOPHIL / ABSOLUTE LYMPHOCYTE / ABSOLUTE MONOCYTE / ABSOLUTE SEGMENTED NEUTROPHIL / BASOPHIL / EOSINOPHIL / ERYTHROCYTE COUNT / HEMATOCRIT / HEMOGLOBIN / LEUKOCYTE COUNT / LYMPHOCYTE / MEAN CORPUSCULAR HEMOGLOBIN / MEAN CORPUSCULAR HEMOGLOBIN CONCENTRATION / MEAN CORPUSCULAR VOLUME / MONOCYTE / NEUTROPHIL / NUCLEATED RED BLOOD CELLS / PLATELET COUNT: tissue Blood; for ALANINE AMINOTRANSFERASE / ALBUMIN / ALKALINE PHOSPHATASE / ASPARTATE AMINOTRANSFERASE / BLOOD UREA NITROGEN / CARBON DIOXIDE / CHLORIDE / CHOLESTEROL / CREATINE PHOSPHOKINASE / CREATININE / GLUCOSE / LACTATE DEHYDROGENASE / LIPASE / PHOSPHORUS / POTASSIUM / SODIUM / TOTAL BILIRUBIN / TOTAL PROTEIN / URIC ACID: tissue Plasma
# [1] = 19.5 mg/kg, 120 h, dose level Low, time 5 day
# [2] = 75 mg/kg, 72 h, dose level High, time 3 day
# [3] = 75 mg/kg, 120 h, dose level High, time 5 day
structure (smiles),measurement,setting,value
CN1CCC[C@H]1c1cccnc1 [NICOTINE],ABSOLUTE BASOPHIL,[1],0 CELLS/uL
same,ABSOLUTE EOSINOPHIL,[1],37.67 CELLS/uL
same,ABSOLUTE LYMPHOCYTE,[1],10299.33 CELLS/uL
same,ABSOLUTE MONOCYTE,[1],0 CELLS/uL
same,ABSOLUTE SEGMENTED NEUTROPHIL,[1],1096.33 CELLS/uL
same,BASOPHIL,[1],0%
same,EOSINOPHIL,[1],0.33%
same,ERYTHROCYTE COUNT,[1],5.67 x10E6/uL
same,HEMATOCRIT,[1],35.63%
same,HEMOGLOBIN,[1],14.17 G/DL
same,LEUKOCYTE COUNT,[1],11.43 x10E3/uL
same,LYMPHOCYTE,[1],90.33%
same,MEAN CORPUSCULAR HEMOGLOBIN,[1],25 pg
same,MEAN CORPUSCULAR HEMOGLOBIN CONCENTRATION,[1],39.77 G/DL
same,MEAN CORPUSCULAR VOLUME,[1],62.83 fL
same,MONOCYTE,[1],0%
same,NEUTROPHIL,[1],9.33%
same,NUCLEATED RED BLOOD CELLS,[1],0.33 /100WBC
same,PLATELET COUNT,[1],1167.67 x10E3/uL
same,ALANINE AMINOTRANSFERASE,[1],54.67 u/L
same,ALBUMIN,[1],4.17 G/DL
same,ALKALINE PHOSPHATASE,[1],397.33 u/L
same,ASPARTATE AMINOTRANSFERASE,[1],83.67 u/L
same,BLOOD UREA NITROGEN,[1],12 mg/dL
same,CARBON DIOXIDE,[1],34.33 mmol/L
same,CHLORIDE,[1],101 MEQ/L
same,CHOLESTEROL,[1],62.33 mg/dL
same,CREATINE PHOSPHOKINASE,[1],196.67 u/L
same,CREATININE,[1],0.21 mg/dL
same,GLUCOSE,[1],146.67 mg/dL
same,LACTATE DEHYDROGENASE,[1],207.67 u/L
same,LIPASE,[1],11.67 u/L
same,PHOSPHORUS,[1],11.63 mg/dL
same,POTASSIUM,[1],6.48 MEQ/L
same,SODIUM,[1],143.9 MEQ/L
same,TOTAL BILIRUBIN,[1],0.23 mg/dL
same,TOTAL PROTEIN,[1],6.03 G/DL
same,URIC ACID,[1],1.2 mg/dL
same,ABSOLUTE BASOPHIL,[2],0 CELLS/uL
same,ABSOLUTE EOSINOPHIL,[2],0 CELLS/uL
same,ABSOLUTE LYMPHOCYTE,[2],13562.33 CELLS/uL
same,ABSOLUTE MONOCYTE,[2],210.33 CELLS/uL
same,ABSOLUTE SEGMENTED NEUTROPHIL,[2],827.33 CELLS/uL
same,BASOPHIL,[2],0%
same,EOSINOPHIL,[2],0%
same,ERYTHROCYTE COUNT,[2],5.82 x10E6/uL
same,HEMATOCRIT,[2],37.17%
same,HEMOGLOBIN,[2],14.57 G/DL
same,LEUKOCYTE COUNT,[2],14.6 x10E3/uL
same,LYMPHOCYTE,[2],93%
same,MEAN CORPUSCULAR HEMOGLOBIN,[2],25.03 pg
same,MEAN CORPUSCULAR HEMOGLOBIN CONCENTRATION,[2],39.2 G/DL
same,MEAN CORPUSCULAR VOLUME,[2],63.87 fL
same,MONOCYTE,[2],1.33%
same,NEUTROPHIL,[2],5.67%
same,NUCLEATED RED BLOOD CELLS,[2],0.33 /100WBC
same,PLATELET COUNT,[2],1370 x10E3/uL
same,ALANINE AMINOTRANSFERASE,[2],58.67 u/L
same,ALBUMIN,[2],4.07 G/DL
same,ALKALINE PHOSPHATASE,[2],398 u/L
same,ASPARTATE AMINOTRANSFERASE,[2],92 u/L
same,BLOOD UREA NITROGEN,[2],11 mg/dL
same,CARBON DIOXIDE,[2],25.67 mmol/L
same,CHLORIDE,[2],101.33 MEQ/L
same,CHOLESTEROL,[2],64 mg/dL
same,CREATINE PHOSPHOKINASE,[2],288.33 u/L
same,CREATININE,[2],0.13 mg/dL
same,GLUCOSE,[2],150.33 mg/dL
same,LACTATE DEHYDROGENASE,[2],290.67 u/L
same,LIPASE,[2],10.33 u/L
same,PHOSPHORUS,[2],11.73 mg/dL
same,POTASSIUM,[2],6.07 MEQ/L
same,SODIUM,[2],143.23 MEQ/L
same,TOTAL BILIRUBIN,[2],0.17 mg/dL
same,TOTAL PROTEIN,[2],5.73 G/DL
same,URIC ACID,[2],1.6 mg/dL
same,ABSOLUTE BASOPHIL,[3],0 CELLS/uL
same,ABSOLUTE EOSINOPHIL,[3],0 CELLS/uL
same,ABSOLUTE LYMPHOCYTE,[3],9380.67 CELLS/uL
same,ABSOLUTE MONOCYTE,[3],97.67 CELLS/uL
same,ABSOLUTE SEGMENTED NEUTROPHIL,[3],455 CELLS/uL
same,BASOPHIL,[3],0%
same,EOSINOPHIL,[3],0%
same,ERYTHROCYTE COUNT,[3],6.33 x10E6/uL
same,HEMATOCRIT,[3],38.6%
same,HEMOGLOBIN,[3],15.23 G/DL
same,LEUKOCYTE COUNT,[3],9.93 x10E3/uL
same,LYMPHOCYTE,[3],94.33%
same,MEAN CORPUSCULAR HEMOGLOBIN,[3],24.1 pg
same,MEAN CORPUSCULAR HEMOGLOBIN CONCENTRATION,[3],39.5 G/DL
same,MEAN CORPUSCULAR VOLUME,[3],61 fL
same,MONOCYTE,[3],1%
same,NEUTROPHIL,[3],4.67%
same,NUCLEATED RED BLOOD CELLS,[3],0.33 /100WBC
same,PLATELET COUNT,[3],1256.67 x10E3/uL
same,ALANINE AMINOTRANSFERASE,[3],64.67 u/L
same,ALBUMIN,[3],4.53 G/DL
same,ALKALINE PHOSPHATASE,[3],383 u/L
same,ASPARTATE AMINOTRANSFERASE,[3],91 u/L
same,BLOOD UREA NITROGEN,[3],12.67 mg/dL
same,CARBON DIOXIDE,[3],33 mmol/L
same,CHLORIDE,[3],101.67 MEQ/L
same,CHOLESTEROL,[3],71.67 mg/dL
same,CREATINE PHOSPHOKINASE,[3],315 u/L
same,CREATININE,[3],0.22 mg/dL
same,GLUCOSE,[3],140.33 mg/dL
same,LACTATE DEHYDROGENASE,[3],131.33 u/L
same,LIPASE,[3],9.67 u/L
same,PHOSPHORUS,[3],9.5 mg/dL
same,POTASSIUM,[3],5.03 MEQ/L
same,SODIUM,[3],147.7 MEQ/L
same,TOTAL BILIRUBIN,[3],0.17 mg/dL
same,TOTAL PROTEIN,[3],6.6 G/DL
same,URIC ACID,[3],0.77 mg/dL
